Experiments:
[1] = Liquid
[2] = refractive index (Na D-line) (dimensionless); conditions: 298.15 K; 101.33 kPa; Liquid; Standard Abbe refractometry

CCCCCCCl [1-chlorohexane]
mass density [kg/m3], [1]
Conditions	298.15 K	308.15 K	318.15 K	328.15 K
100 kPa	873.42	863.99	854.58	845.18
2130 kPa	874.73	865.56	856.27	847.12
4150 kPa	876.45	867.35	858.19	849.17
6180 kPa	878.31	869.15	860.06	851.16
8210 kPa	879.79	870.9	861.91	853.13
10230 kPa	881.44	872.61	863.73	855.02
11250 kPa	882.22	873.47	864.62	855.98
12260 kPa	883.01	874.3	865.5	856.91
14290 kPa	884.61	875.96	867.28	858.76
16310 kPa	886.16	877.59	869	860.59
18340 kPa	887.68	879.2	870.66	862.35
20370 kPa	889.18	880.78	872.33	864.12
22390 kPa	890.65	882.35	873.95	865.82
24420 kPa	892.14	883.86	875.54	867.51
26450 kPa	893.54	885.35	877.12	869.18
28470 kPa	894.96	886.84	878.67	870.8
29490 kPa	895.65	887.56	879.43	871.6
30500 kPa	896.32	888.21	880.19	872.4
32530 kPa	897.71	889.73	881.7	873.95
34550 kPa	899.05	891.14	883.17	875.49
36580 kPa	900.38	892.52	884.63	877.05
38600 kPa	901.69	893.9	886.04	878.53
39620 kPa	902.33	894.55	886.76	879.31

Conditions	refractive index
[2]	1.4172

CCCCCCCC [octane]
mass density [kg/m3], [1]
Conditions	298.15 K	308.15 K	318.15 K	328.15 K
100 kPa	698.64	690.43	682.47	674.53
2130 kPa	700.14	692.18	684.48	676.49
4150 kPa	701.87	694	686.45	678.56
6180 kPa	703.56	695.79	688.29	680.59
8210 kPa	705.17	697.53	690.17	682.57
10230 kPa	706.78	699.24	691.97	684.51
11250 kPa	707.58	700.07	692.85	685.44
12260 kPa	708.37	700.88	693.77	686.38
14290 kPa	709.9	702.55	695.49	688.23
16310 kPa	711.41	704.13	697.2	690.03
18340 kPa	712.9	705.71	698.86	691.76
20370 kPa	714.36	707.23	700.47	693.5
22390 kPa	715.78	708.76	702.07	695.17
24420 kPa	717.18	710.22	703.61	696.82
26450 kPa	718.56	711.66	705.13	698.41
28470 kPa	719.9	713.09	706.66	699.98
29490 kPa	720.57	713.77	707.38	700.75
30500 kPa	721.22	714.47	708.13	701.53
32530 kPa	722.53	715.84	709.54	703.01
34550 kPa	723.82	717.18	710.96	704.5
36580 kPa	725.06	718.5	712.33	705.96
38600 kPa	726.32	719.82	713.68	707.36
39620 kPa	726.94	720.45	714.38	708.06

Conditions	refractive index
[2]	1.395
